Tests used:
[1] = system: Patienten mit Polyposis nasi et sinuum; type: in vivo, Mensch
Excerpt: Im Rahmen einer klinischen Anwendung erhielten 22 Patienten nach einer Nasennebenhöhlenoperation zusätzlich zu einer Standardmedikation 1,8-Cineol (Soledum forte®), 3-mal 1 Kapsel, über einen Zeitraum von 3 Monaten. Die präoperativen CT-Bilder wurden nach dem Lund-Mackay-Score bewertet. Die Patienten wurden gebeten, ihre Beschwerden mittels eines Fragebogens (SNOT20 - German adapted version) einzuschätzen. 21 von 22 Patienten beendeten die Therapie wie vorgesehen. Ein Patient berichtete über gastrointestinale Nebenwirkungen und brach die Behandlung mit 1,8-Cineol ab. […] Somit war ein gutes Ansprechen auf die zusätzliche medikamentöse Behandlung mit 1,8-Cineol bei einem tolerablen Nebenwirkungsprofil zu beobachten.

Fibroblastenzelllinie = assay: MTT assay, vitality and proliferation of a fibroblast cell line; type: cell-based; details: 1 mM bis 10 mM, 250 Stunden
Method: Es wurden weiterführende Untersuchungen durchgeführt zur Analyse des Einflusses von Cineol auf die Vitalität und Proliferation verschiedener permanenter Zelllinien. Hierzu wurden einerseits die zwei HNSCC-Zelllinien und des Weiteren eine Fibroblastenzelllinie verwendet. Diese wurden über einen Zeitraum von 250 Stunden mit verschiedenen Cineol-Konzentrationen kultiviert (1 mM bis 10 mM) und die Vitalität der Zellen wurde jeweils mittels eines MTT-Assays untersucht.

GSK-3-alpha/beta = assay: Western blot of phospho-GSK-3 (Ser-9/-21) in nasal polyp samples; type: cell-based, Mensch; details: 100 µM, 24 h (Figur 4A)
Method: Lysate von Geweben wurden durch Erhitzen über einen Zeitraum von 5 Minuten in einfachem SDS-Probenpuffer (Carl Roth GmbH, Karlsruhe, Deutschland) denaturiert. Die Proteinkonzentrationen wurden mittels des Bradford-Tests bestimmt und jeweils 30 µg Gesamtprotein wurden zur SDS-Polyacrylamid-Gel Elektrophorese eingesetzt (Mini-Protean TGX®, Any kD, BioRad, Hercules, CA, USA) und anschließend auf Nitrozellulosemembranen übertragen. Die Übertragung der Proteine wurde mittels Ponceau-Färbung kontrolliert. […]
Um die Beladungsmenge jeder Spur zu bestimmen, wurden die Nitrozellulosemembranen über Nacht bei 4 °C mit einem primären Antikörper der GAPDH (Cell Signaling Technology Inc., Massachusetts, Katalognummer: 14C10) in einer Verdünnung von 1 : 1.000 inkubiert. […] Die Pixeldichten wurden quantifiziert und mittels Fusion FX7® unter Einsatz von Bio-1D Software® dokumentiert. […]

[2] = system: kultivierte Zellen aus der Nasenschleimhaut; assay: Proliferation of cultured nasal mucosa (epithelial) cells; type: cell-based, Mensch; details: treatment with 1,8-Cineol (Figur 2B)
Excerpt: Material und Methoden: Die Anmelderin hat Gewebeproben aus Nasenpolypen und unteren Nasenmuscheln von Patienten mit CRSwNP (chronischer Rhinosinusitis mit Nasenpolypen) und aus unteren Nasenmuscheln von Probanden ohne chronische Sinusitis (gesunde Schleimhaut) auf Basis von immunohistochemischen Methoden und Immunoblot-Verfahren untersucht. Die zelluläre Proliferation und Migration wurden unter Einsatz des xCELLigence Real Time Cell Analyzer untersucht.
Die Zellproliferation wurde mittels eines quantitativen kolorimetrischen 3-(4,5-Dimethylthiazol 2-yl)-2,5-diphenyltetrazoliumbromid-basierten (MTT) Zelltests bestimmt. Dieser Test bestimmt die Anzahl an lebensfähigen Zellen auf Basis der mitochondrialen Umwandlung von MTT.
Die Proliferation wurde mittels eines MTT-Tests von Sigma-Aldrich ("In Vitro Toxicology Assay Kit") entsprechend den Instruktionen des Herstellers ermittelt.
Im Vergleich zur gesunden Nasenschleimhaut weisen Nasenpolypen eine andere Morphologie auf, was anhand von immunohistochemischen Färbungen mit Hämatoxylin-Eosin (HE) an gefrorenen Gewebeschnitten gezeigt werden konnte (Figur 1). Mit dieser Färbemethode werden basophile Strukturen mit Blau-Lila und eosinophile Strukturen mit hellem Pink angefärbt, wohingegen hydrophobe Strukturen, wie die Membranen des Golgi-Apparats, ungefärbt bzw. klar bleiben. […]

CC12CCC(CC1)C(C)(C)O2 [1,8-Cineol, 1,3,3-Trimethyl-2-oxabicyclo[2.2.2]octan]
SNOT-20-Score ([1]; first orienting evaluation, compared with preoperative results): deutliche Verbesserung
Rezidivpolyposis ([1]; follow-up examination after 6 months): lediglich bei einem Patienten eine beginnende geringfügige Rezidivpolyposis
gastrointestinale Nebenwirkungen ([1]; in vivo): Ein Patient
Progression und Vitalität von Fibroblasten (Fibroblastenzelllinie): inhibierender Einfluss
Phosphorylierung von GSK-3-alpha/beta an Serin-9/-21 (GSK-3-alpha/beta): verringerten Phosphorylierung
Proliferation kultivierter Zellen aus der Nasenschleimhaut [2]: nicht beeinflusst

From patent EP3325012B1, “CINEOLE-CONTAINING COMPOSITION FOR TREATING NOSE POLYPS” (Maria Clementine Martin Klosterfrau Vertriebsgesellschaft …, priority 2015, dated 2017)
